In patent US11311530B2, “Lewy body disease therapeutic agent containing pyrazoloquinoline derivative” (Eisai R&D Management Co., Ltd., priority 2017, dated 2022):

How the values were obtained:
[1] = biological target: phosphodiesterase 9 (PDE9) (Homo sapiens, UniProt O76083); settings: from Patent Literature 1; cited from earlier work
[2] = tested on: rat with scopolamine-induced cognitive impairment; experiment: Novel object recognition test using rats with scopolamine-induced cognitive impairment; type: in vivo; settings: for percentage of exploration of the novel object during T2: scopolamine 0.7 mg/kg s.c., male Long Evans rats, mean ± standard error
Procedure: A novel object recognition test using rats with scopolamine-induced cognitive impairment was performed to confirm the effect of improving cognitive impairment induced by an acetylcholine nerve disorder. The novel object recognition test is a test system for assessing cognitive function based on the spontaneous behavioral characteristic of a rodent in which the rodent spends more time exploring a novel object than a familiar object. The test method described in Ennacer etc. Behavioural Brain Research, 31 (1988) pp. 47-51 was partially modified and performed.
Six-week-old male Long Evans rats (the Institute for Animal Reproduction) were subjected to the test. For two days before the test, a process for habituating the rat to the experimental procedure was performed once daily. In the habituation process, administration of a vehicle to the rat was performed, and subsequently, the rat was placed in an empty test apparatus (40 cm×30 cm×H 45 cm) and allowed to explore for 3 minutes, was transferred into a waiting chamber (13 cm×30 cm×H 45 cm) for about 1 minute, and then was returned into the empty test apparatus again and allowed to stay for 5 minutes.
On the day of the test, an acquisition trial (T1) was performed. Compound (I) was administered orally by using a solution of 0.5% methylcellulose in 0.01 M hydrochloric acid as a vehicle 2 hours before T1. Scopolamine (Wako Pure Chemical Industries, Ltd.) was administered subcutaneously by using a saline as a vehicle at a dose of 0.7 mg/kg 30 minutes before T1. […] The behaviors of the rat during T1 and T2 were recorded by a digital video camera and the total exploration time for each object was measured manually using a stopwatch. […]
In the novel object recognition test, a percentage of exploration of the novel object during T2 is considered as an amnesia index that reflects discrimination between the familiar object and the novel object. The percentage of exploration of the novel object was calculated in accordance with the following equation. […]
The results were expressed as mean±standard error. […]

phosphodiesterase 9 (PDE9), sequence (O76083 whole entry): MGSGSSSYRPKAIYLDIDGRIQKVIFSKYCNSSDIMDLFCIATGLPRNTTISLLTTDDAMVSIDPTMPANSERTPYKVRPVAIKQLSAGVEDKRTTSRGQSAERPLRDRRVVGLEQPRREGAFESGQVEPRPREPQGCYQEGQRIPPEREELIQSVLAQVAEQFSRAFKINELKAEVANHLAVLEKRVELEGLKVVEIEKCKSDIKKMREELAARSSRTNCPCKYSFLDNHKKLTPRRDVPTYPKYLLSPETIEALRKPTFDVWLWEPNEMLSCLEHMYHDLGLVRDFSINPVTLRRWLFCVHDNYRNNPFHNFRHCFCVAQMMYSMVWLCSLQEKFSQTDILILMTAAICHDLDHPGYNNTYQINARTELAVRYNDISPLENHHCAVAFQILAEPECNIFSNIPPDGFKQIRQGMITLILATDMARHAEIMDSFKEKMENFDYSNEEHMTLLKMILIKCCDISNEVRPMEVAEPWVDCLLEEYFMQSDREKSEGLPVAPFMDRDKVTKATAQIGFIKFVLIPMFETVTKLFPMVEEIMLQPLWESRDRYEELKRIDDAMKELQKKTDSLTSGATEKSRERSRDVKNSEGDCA

COc1ncc(C)c(-c2ccc3c(c2)[nH]c(=O)c2cnn([C@H]4CCOC4)c23)c1C [Compound (I), (S)-7-(2-methoxy-3,5-dimethylpyridin-4-yl)-1-(tetrahydrofuran-3-yl)-1H-pyrazolo[4,3-c]quinolin-4(5H)-one]
PDE9 inhibitory action [1]: exhibits a PDE9 inhibitory action | percentage of exploration of the novel object during T2 ([2]; 3.3 mg/kg orally 2 hours before T1): 68.5 ± 2.0 % | percentage of exploration of the novel object during T2 ([2]; 10 mg/kg orally 2 hours before T1): 68.5 ± 1.6 % | effect of improving the percentage of exploration of the novel object ([2]; at 3.3 mg/kg and 10 mg/kg, versus disease control group, Dunnett's test, p<0.05): significant effect of improving the percentage of exploration of the novel object
